Data taken from patent US7767679B2, “Sulfonylamino-derivatives as novel inhibitors of histone deacetylase” (Janssen Pharmaceutica N.V., priority 2002, dated 2010).

Experiments:
[1] = system: A2780 ovarian carcinoma cells; assay: Antiproliferative activity on A2780 cells (MTT); format: cell-based; conditions: Homo sapiens, 96 h, four days of incubation, read-out: Cellular activity pIC50 (converted)
Experimental: Cellular activity of the compounds of formula (I) was determined on A2780 tumour cells using a colorimetric assay for cell toxicity or survival (Mosmann Tim, Journal of Immunological Methods 65: 55-63, 1983)(see example C.2).
All compounds tested were dissolved in DMSO and further dilutions were made in culture medium. Final DMSO concentrations never exceeded 0.1% (v/v) in cell proliferation assays. Controls contained A2780 cells and DMSO without compound and blanks contained DMSO but no cells. MTT was dissolved at 5 mg/ml in PBS. A glycine buffer comprised of 0.1 M glycine and 0.1 M NaCl buffered to pH 10.5 with NaOH (1 N) was prepared (all reagents were from Merck).
The human A2780 ovarian carcinoma cells (a kind gift from Dr. T. C. Hamilton [Fox Chase Cancer Centre, Pennsylvania, USA]) were cultured in RPMI 1640 medium supplemented with 2 mM L-glutamine, 50 μg/ml gentamicin and 10% fetal calf serum. Cells were routinely kept as monolayer cultures at 37° C. in a humidified 5% CO2 atmosphere. Cells were passaged once a week using a trypsin/EDTA solution at a split ratio of 1:40. All media and supplements were obtained from Life Technologies. Cells were free of mycoplasma contamination as determined using the Gen-Probe Mycoplasma Tissue Culture kit (supplier: BioMérieux).
Cells were seeded in NUNC™ 96-well culture plates (Supplier: Life Technologies) and allowed to adhere to the plastic overnight. Densities used for plating were 1500 cells per well in a total volume of 200 μl medium. After cell adhesion to the plates, medium was changed and drugs and/or solvents were added to a final volume of 200 μl. Following four days of incubation, medium was replaced by 200 μl fresh medium and cell density and viability was assessed using an […] assay. To each well, 25 μl μl MTT solution was added and the cells were further incubated for 2 hours at 37° C. The medium was then carefully aspirated and the blue MT-formazan product was solubilized by addition of 25 μl glycine buffer followed by 100 μl of DMSO. […] Within an experiment, the results for each experimental condition are the mean of 3 replicate wells. For initial screening purposes, compounds were tested at a single fixed concentration of 10^−6 M. For active compounds, the experiments were repeated to establish full concentration-response curves. For each experiment, controls (containing no drug) and a blank incubation (containing no cells or drugs) were run in parallel. The blank value was subtracted from all control and sample values. For each sample, the mean value for cell growth (in absorbance units) was expressed as a percentage of the mean value for cell growth of the control. […] Herein the effects of test compounds are expressed as pIC50 (the negative log value of the IC50-value).

[2] = target: histone deacetylase (HeLa nuclear extracts); assay: In vitro assay for inhibition of histone deacetylase; format: biochemical; conditions: HeLa nuclear extracts 60 μg/ml, [3H]acetylated histone H4 peptide substrate, 30 min
Experimental: The in vitro assay for inhibition of histone deacetylase (see example C.1) measures the inhibition of HDAC enzymatic activity obtained with the compounds of formula (I).
HeLa nuclear extracts (supplier: Biomol) were incubated at 60 μg/ml with 2×10^−8 M of radiolabeled peptide substrate. As a substrate for measuring HDAC activity a synthetic peptide, i.e. the amino acids 14-21 of histone H4, was used. The substrate is biotinylated at the NH2-terminal part with a 6-aminohexanoic acid spacer, and is protected at the COOH-terminal part by an amide group and specifically [^3H]acetylated at lysine 16. The substrate, biotin-(6-aminohexanoic)Gly-Ala-([^3H]-acetyl-Lys-Arg-His-Arg-Lys-Val-NH2), was added in a buffer containing 25 mM Hepes, 1 M sucrose, 0.1 mg/ml BSA and 0.01% Triton X-100 at pH 7.4. After 30 min the deacetylation reaction was terminated by the addition of HCl and acetic acid. (final concentration […] respectively). After stopping the reaction, the free ^3H-acetate was extracted with ethylacetate. After mixing and centrifugation, the radioactivity in an aliquot of the upper (organic) phase was counted in β-counter.
For each experiment, controls (containing HeLa nuclear extract and DMSO without compound), a blank incubation (containing DMSO but no HeLa nuclear extract or compound) and samples (containing compound dissolved in DMSO and HeLa nuclear extract) were run in parallel. In first instance, compounds were tested at a concentration of 10^−5M. […] In each test the blank value was substracted from both the control and the sample values. The control sample represented 100% of substrate deactylation. For each sample the radioactivity was expressed as a percentage of the mean value of the controls. […] Herein the effects of test compounds are expressed as pIC50 (the negative log value of the IC50-value).

Structure (SMILES)	melting point [°C]	IC50 [1] [nM]	Enzyme activity pIC50 [2]
O=C(NO)c1cnc(N2CCN(CCCNS(=O)(=O)c3ccc4ccccc4c3)CC2)nc1 (hydrate or solvate) [Co. No. 26]	115	–	–
O=C(NO)c1ccc(N2CCC(NS(=O)(=O)c3ccc4ccccc4c3)CC2)cc1 [Co. No. 1]	–	5280	6.523
O=C(Nc1ccc(N2CCC(NS(=O)(=O)c3ccc(-c4ccccc4)cc3)CC2)cc1)/C(Cc1ccccc1)=N/O [Co. No. 3]	262	1800	<5
O=C(NO)c1cnc(N2CCC(NS(=O)(=O)c3ccc4ccccc4c3)CC2)nc1N1CCN(S(=O)(=O)c2ccc3ccccc3c2)CC1 [Co. No. 6]	80	2090	<5
O=C(NO)c1ccc(N2CCCC(NS(=O)(=O)c3ccc4ccccc4c3)CC2)nc1 (stereo not drawn) [Co. No. 10]	142	2120	6.893
O=C(NO)c1cnc(N2CCC(NS(=O)(=O)N3CCOCC3)CC2)nc1 [Co. No. 25]	217	> 10000	6.449
O=C(NO)c1cnc(N2CCN(CCCNS(=O)(=O)c3ccc4ccccc4c3)CC2)nc1 [Co. No. 26]	–	546	7.85
CN(C1CCN(c2ncc(C(=O)NO)cn2)C1)S(=O)(=O)c1ccc2ccccc2c1 (stereo not drawn) [Co. No. 27]	158	1660	7.49
O=C(NO)c1cnc(N2CCC(CNS(=O)(=O)N3CCOCC3)CC2)nc1 [Co. No. 28]	217	7780	7.074
CN(C1CCN(c2ncc(C(=O)NO)cn2)CC1)S(=O)(=O)c1ccc2ccccc2c1 [Co. No. 29]	> 260	3720	7.04
CS(=O)(=O)c1ccc(-c2ccccc2S(=O)(=O)NCC2CCN(c3ncc(C(=O)NO)cn3)CC2)cc1 [Co. No. 30]	–	2140	7.614
Cc1cc(C(=O)NO)ccc1N1CCC(NS(=O)(=O)c2ccc3ccccc3c2)CC1 [compound 11]	–	1640	5.829
O=C(NO)c1ccc(N2CCC(NS(=O)(=O)c3ccc4ccccc4c3)CC2)nc1 [compound 12]	–	2910	7.438
Cc1cc(C(=O)NO)ccc1N1CCC(NS(=O)(=O)c2ccc(-c3ccccc3)cc2)CC1 [compound 13]	–	698	5.428
O=C(NO)c1ccc(N2CCC(NS(=O)(=O)c3ccc(-c4ccccc4)cc3)CC2)cc1 [compound 14]	–	2090	6.116
O=C(NO)c1ccc(N2CCC(NS(=O)(=O)c3ccc4ccccc4c3)C2)cc1 (stereo not drawn) [compound 16]	–	> 10000	6.293
O=C(NO)c1ccc(N2CCC(NS(=O)(=O)c3ccc4ccccc4c3)C2)nc1 (stereo not drawn) [compound 17]	–	> 10000	6.95
O=C(NO)c1ccc(N2CCC(NS(=O)(=O)c3ccc(-c4ccccc4)cc3)C2)nc1 (stereo not drawn) [compound 18]	–	49.8	5.321
